Assay: Clinical trial in patients receiving pelvic radiotherapy (radiation enteritis)
Format: in vivo, human
Settings: once daily, 10 days, with conventional radiotherapy
[1] = number of patients of 50 per group

Compound: CC(O)C(=O)[O-].CC(O)C(=O)[O-].[Ca+2] (stereo not shown) [对比例2, 乳酸钙]
- total effective rate (50 patients per group): 4%
- cured [1]: 0
- improved [1]: 2
- ineffective [1]: 48
